The values below come from US20230277505A1 (Arena Pharmaceuticals, Inc., priority 2003, published 2023).

The subject of series [1] is DOI-induced hypolocomotion in rats. Put plainly: Attenuation of DOI-induced hypolocomotion in rats. The series is classed as in vivo, rat. Particulars: 50 μmol/kg p.o. 60 min before DOI 0.3 mg/kg s.c. On the procedure: In this example, compounds of the invention, such as Compound 1 and Compound 26, were tested for inverse agonist activity by determining whether these compounds could attenuate DOI-induced hypolocomotion in rats in a novel environment. DOI is a potent 5HT2A/2C receptor agonist that crosses the blood-brain barrier.
Male Sprague-Dawley rats (Harlan, San Diego, Calif.) weighing between 200-300 g were used for all tests. Rats were housed three to four per cage. These rats were naïve to experimental testing and drug treatment. Rats were handled one to three days before testing to acclimate them to experimental manipulation. Rats were fasted overnight prior to testing.
(R)-DOI HCl (C11H16INO2·HCl) was obtained from Sigma-Aldrich, and was dissolved in 0.9% saline. Compounds of the invention were synthesized at Arena Pharmaceuticals Inc. and were dissolved in 100% PEG400. […]
The “Motor Monitor” (Hamilton-Kinder, Poway, Calif.) was used for all activity measurement. This apparatus recorded rears using infrared photobeams. […]
In determining the effects of compounds of the invention on DOI-induced hypoactivity, animals were first injected with vehicle or the compound of the invention (50 μmol/kg) in their home cages. […] 10 min after DOI administration, animals were placed into the activity apparatus and rearing activity was measured for 10 minutes.
Results (total rears over 10 minutes) were analyzed by t-test. […]

The next series deals with male Wistar rats. Put plainly: Effect on delta power, sleep and wakefulness in rats (EEG/EMG). The class given is in vivo, rat. Particulars: oral gavage. On the procedure:
In this example, the effect of Compounds of the Invention, such as Compound 1 and Compound 26, on sleep and wakefulness was compared to the reference drug zolpidem. Drugs were administered during the middle of the light period (inactivity period).
Briefly, four compounds of the invention, including Compound 1 (1.0 mg/kg) and Compound 26 (1.4 mg/kg), were tested for their effects on sleep parameters and were compared to zolpidem (5.0 mg/kg, Sigma, St. Louis, Mo.) and vehicle control (80% Tween 80, Sigma, St. Louis, Mo.). A repeated measures design was employed in which each rat was to receive seven separate dosings via oral gavage. The first and seventh dosings were vehicle and the second through sixth were the test compounds and zolpidem given in counter-balanced order. Since all dosings were administered while the rats were connected to the recording apparatus, 60% CO2/40% O2 gas was employed for light sedation during the oral gavage process. Rats appeared fully recovered within 60 seconds following the procedure. A minimum of three days elapsed between dosings. […] Dosing typically occurred between 13:15 and 13:45 using a 24 hour notation. All dosing solutions were made fresh on the day of dosing. Following each dosing, animals were continuously recorded until lights out the following day (˜30 hours).
Animals were housed in a temperature controlled recording room under a 12/12 light/dark cycle (lights on at 7:00 am) and had food and water available ad libitum. Room temperature (24+2° C.), humidity (50+20% relative humidity) and lighting conditions were monitored continuously via computer. Drugs were administered via oral gavage as described above, with a minimum of three days between dosings. Animals were inspected daily in accordance with NIH guidelines. […]
EEG and EMG data were scored visually in 10 second epochs for waking (W), REMS, NREMS. Scored data were analyzed and expressed as time spent in each state per half hour. Sleep bout length and number of bouts for each state were calculated in hourly bins. […]

Series [2] can be described thus: Plasma drug concentration in the PET occupancy study. The series is classed as in vivo, rhesus monkey. Particulars: 0.5 mg/kg i.v.; after 8 hours. The method, then:
The monkey was anesthetized by using ketamine (10 mg/kg) and was maintained using 0.7 to 1.25% isoflurane. Typically, the monkey had two i.v. lines, one on each arm. One i.v. line was used to administer the radioligand, while the other line was used to draw blood samples for pharmacokinetic data of the radioligand as well as the cold drugs. Generally, rapid blood samples were taken as the radioligand is administered which then taper out by the end of the scan. A volume of approximately 1 ml of blood was taken per time point, which was spun down, and a portion of the plasma was counted for radioactivity in the blood.
The results of both an 8 hour and 24 hour study are shown. The test compound was administered via i.v. infusion in 5.0 ml of 80% PEG400. For the 8 hour study, venous blood samples were drawn at 5 minutes post Compound 1 and 15 minutes before PET scan. For the 24 hour study, venous blood samples were drawn at 5 minutes post Compound 1 and 10 minutes before PET scan.

For the next series, the target named is 5HT2A receptor (Macaca mulatta (Rhesus macaque), UniProt P50128). Put plainly: Serotonin 5-HT2A receptor occupancy study in monkey (PET, 18F-altanserin). The class given is in vivo. The note with it: iv.
The conditions of series [3]: 24 months of treatment; patients; cited from earlier work.
For series [4] the following is noted: glaucoma patients; cited from earlier work.

Where two headings read alike, the source gives them in different places.

On to `COc1ccc(NC(=O)Nc2ccc(Cl)cc2)cc1-c1c(Br)cnn1C` [Compound 1, 1-[3-(4-Bromo-2-methyl-2H-pyrazol-3-yl)-4-methoxy-phenyl]-3-(4-Chloro-phenyl)-urea], for which the “DOI-induced hypolocomotion (total rears over 10 minutes)” value in series [1] was “attenuated DOI-induced hypolocomotion”. In addition, in the series on male Wistar rats (1.0 mg/kg, second hour), the NREMS bout length result is listed as “significantly increased”. Also, the REMS bout length result in the series on male Wistar rats (Compound 1 1.0 mg/kg, Compound 26 1.4 mg/kg, fourth hour) is given as “significantly increased”. The “delta power during NREMS” value in the series with male Wistar rats (Compound 1 1.0 mg/kg, Compound 26 1.4 mg/kg, second hour following dosing (15:00), vs vehicle) is “significantly increased”. Also, the “test drug concentrations in plasma samples” value in series [2] is reported as “no measurable test drug concentrations”. Also, the receptor occupancy at 0.5 mg/kg at 5HT2A receptor (read-out: 5HT2A receptor occupancy, 0.5 mg/kg i.v., 8 hours following drug administration, cortical regions) was roughly 90%; at 5HT2A receptor (read-out: 5HT2A receptor occupancy, 0.5 mg/kg i.v., 24 hours post-injection), roughly 80%.
For `COc1cccc(CCc2ccccc2OCC(CN(C)C)OC(=O)CCC(=O)O)c1` (stereo not drawn) [sarpogrelate], the “urinary albumin excretion level” value in series [3] is on record as “significantly reduced”. Besides, the IOP entry in series [4] is reported as “significantly lower”.
